Here are results for seven compounds from ChEMBL document CHEMBL4130402, “Antiprotozoal Linear Furanosesterterpenoids from the Marine Sponge Ircinia oros” (J Nat Prod, 2017).

Assay [1] has as its system Leishmania donovani. Description: Antiprotozoal activity against amastigote form of Leishmania donovani MHOM/ET/67/L82 after 72 hrs by alamar blue assay. The settings on record: MHOM/ET/67/L82, 72 h. Format: functional, organism-based. A general note: Alamar Blue is a resazurin reagent that responds to reducing activity.
In assay [2] the test system is L6. Briefly: Cytotoxicity against rat L6 cells after 72 hrs by alamar blue assay. Type of assay: cell-based. The note with it: L6, 72 h.
In assay [3] the test system is Plasmodium falciparum. Briefly: Antiprotozoal activity against erythrocytic form of chloroquine/pyrimethamine-resistant Plasmodium falciparum K1 after 48 hrs by [3H]-hypoxanthine incorporation assay. Format: functional, organism-based.
Assay [4] concerns Trypanosoma cruzi. Description: Antiprotozoal activity against trypomastigote form of Trypanosoma cruzi Tulahuen C2C4 infected in rat L6 cells after 96 hrs by CPRG/Nonidet-based […]. Format: functional, organism-based. The note with it: Tulahuen C2C4, L6, 96 h.
Assay [5] has as its system Trypanosoma brucei rhodesiense. Briefly: Antiprotozoal activity against blood stream form of Trypanosoma brucei rhodesiense STIB900 after 72 hrs by alamar blue assay. Type of assay: functional, organism-based. The settings on record: STIB900, 72 h.

The structures appear in SMILES notation. Bounds are passed on as bounds.

On to `CC1=C(O)/C(=C/[C@H](C)CCC/C(C)=C/CCc2coc(Cc3ccoc3)c2)OC1=O` [IRCININ 1], for which the IC50 (as a rule, the concentration at which inhibition is half-maximal) in assay [1] was determined as 31 µM; in assay [2], 150 µM; in assay [3] it was 58 µM; in assay [4], 120 µM; in assay [5] it was 97 µM.
In the case of `Nc1nc(N)nc(Nc2ccc([As]3SCC(CO)S3)cc2)n1` (stereo unspecified) [MELARSOPROL], in assay [5], the IC50 was found to be 0.015 µM.
In the case of `CC1=C(O)/C(=C/[C@H](C)CCC/C(C)=C/CCc2coc(CC3=CCN(CC(=O)O)C3=O)c2)OC1=O`, the IC50 in assay [1] was 120 µM; in assay [2], greater than 200 µM; in assay [3], 95 µM; in assay [5] it was 130 µM.
`COc1cc([C@@H]2c3cc4c(cc3[C@H](O)[C@H]3COC(=O)[C@H]23)OCO4)cc(OC)c1OC` [PODOFILOX] yielded an IC50 in assay [2] of 0.01 µM.
For the compound `CC1=C(O)/C(=C/[C@H](C)CC/C=C(/C)CCCc2coc(Cc3ccoc3)c2)OC1=O` [IRCININ 2], the IC50 in assay [1] came out at 28 µM; in assay [2] it was 140 µM; in assay [3] it was 56 µM; in assay [4], 110 µM; in assay [5], 65 µM.
Consider `O=C(Cn1ccnc1[N+](=O)[O-])NCc1ccccc1` [BENZNIDAZOLE], for which the midpoint of inhibition in assay [4], the IC50, lay at 3.07 µM.
For the compound `CC1=C(O)/C(=C/[C@H](C)CCC/C(C)=C/CCC2=CC(Cc3ccoc3)N(CC(=O)O)C2=O)OC1=O` (stereo partly specified), the IC50 in assay [1] was 95 µM; in assay [2], greater than 200 µM; in assay [3], greater than 100 µM; in assay [5] it was 130 µM.
